Values after ≈ are worked out from the molar mass of the structure shown.
What was measured:
[1] = Inhibition of rat liver NADH:cytochrome bc1 reductase
Candida albicans [2] = experiment: Antifungal activity against Candida albicans MY1055 assessed as growth inhibition after 24 hrs by liquid microdilution assay in presence of 10% mouse plasma; format: functional
[3] = Inhibition of Candida albicans MY1055 NADH:cytochrome bc1 reductase
Candida albicans [4] = experiment: Ratio of IC50 for Candida albicans MY1055 NADH:cytochrome bc1 reductase in presence of 40% mouse plasma to IC50 for Candida albicans MY1055 NADH:cytochrome bc1 reductase in absence of mouse plasma
[5] = Inhibition of Candida albicans MY1055 NADH:cytochrome bc1 reductase in presence of 40% mouse plasma; format: cell-free
Candida albicans [6] = experiment: Antifungal activity against Candida albicans MY1055 assessed as growth inhibition after 24 hrs by liquid microdilution assay; format: functional; conditions: MY1055, 24 h
[7] = Selectivity ratio of IC50 for Candida albicans MY1055 NADH:cytochrome bc1 reductase to IC50 for rat liver NADH:cytochrome bc1 reductase
Candida albicans [8] = experiment: Ratio of MIC for Candida albicans MY1055 in presence of 10% mouse plasma to MIC for Candida albicans MY1055 in absence of mouse plasma; format: functional
Candida albicans [9] = experiment: Antifungal activity against Candida albicans MY1055 assessed as growth inhibition after 24 hrs by liquid microdilution assay in presence of 10% mouse plasma

IC50 [1] [ng/mL]	MIC (Candida albicans [2]) [µg/mL]	IC50 [3] [ng/mL]	Ratio IC50 (Candida albicans [4])	IC50 [5] [µg/mL]	MIC (Candida albicans [6]) [µg/mL]	MIC (Candida albicans [9]) [µg/mL]	SMILES	Ratio IC50 [7]	Ratio (Candida albicans [8])
> 1000	> 1	20 (≈ 0.0375 µM)	250	5	> 1	–	C/C=C/[C@@H]1[C@H]2C[C@@H](C)CC[C@@H]2C(C)=C[C@H]1C(=O)c1c(O)c(-c2ccc(O)cc2)cn(CCN(CC)CC)c1=O	–	–
40 (≈ 0.0751 µM)	–	0.1 (≈ 0.000188 µM)	300	0.03	0.031 (≈ 0.0582 µM)	–	C/C=C/[C@@H]1[C@H]2C[C@@H](C)CC[C@@H]2C(C)=C[C@H]1C(=O)c1c(O)c(-c2ccc(OC(=O)CCCCN)cc2)c[nH]c1=O	–	–
45 (≈ 0.0868 µM)	–	0.2 (≈ 0.000386 µM)	150	0.03	0.031 (≈ 0.0598 µM)	–	C/C=C/[C@@H]1[C@H]2C[C@@H](C)CC[C@@H]2C(C)=C[C@H]1C(=O)c1c(O)c(-c2ccc(OC(=O)CCCN)cc2)c[nH]c1=O	–	–
1000 (≈ 2.22 µM)	> 1	5.2 (≈ 0.0116 µM)	192	1	0.625 (≈ 1.39 µM)	> 1	CC1=C[C@@H](C(=O)c2c(O)c(-c3ccc(O)cc3)c[nH]c2=O)[C@H]([C@@H]2OC2C)[C@H]2C[C@@H](C)CC[C@H]12 (stereo not given in full)	–	–
40 (≈ 0.0773 µM)	0.25	1.2 (≈ 0.00232 µM)	20	0.04	0.0313 (≈ 0.0605 µM)	–	C/C=C/[C@@H]1[C@H]2C[C@@H](COC(=O)C3CC3)CC[C@@H]2C(C)=C[C@H]1C(=O)c1c(O)c(-c2ccc(O)cc2)c[nH]c1=O	–	8
1000 (≈ 2.14 µM)	–	200 (≈ 0.427 µM)	–	–	5 (≈ 10.7 µM)	–	C/C=C/[C@@H]1[C@H]2C[C@@H](C)CC[C@@H]2[C@](C)(Cl)[C@H]2Oc3ncc(-c4ccc(O)cc4)c(O)c3C(=O)[C@@H]12	–	–
> 800	1	15 (≈ 0.0281 µM)	7	0.1	0.062 (≈ 0.116 µM)	–	C/C=C/[C@@H]1[C@H]2C[C@@H](COC(C)=O)CC[C@@H]2C(C)=C[C@H]1C(=O)c1c(O)c(-c2ccc(OC(C)=O)cc2)c[nH]c1=O	–	8
> 1000	–	4 (≈ 0.00646 µM)	–	–	0.125 (≈ 0.202 µM)	–	C/C=C/[C@@H]1[C@H]2C[C@@H](C)CC[C@@H]2C(C)=C[C@H]1C(=O)c1c(O)c(-c2ccc(OC(=O)CCCNC(=O)OC(C)(C)C)cc2)c[nH]c1=O	–	–
> 1600	–	0.81 (≈ 0.00165 µM)	–	–	0.125 (≈ 0.255 µM)	–	C/C=C/[C@@H]1[C@H]2C[C@@H](C)CC[C@@H]2C(C)=C[C@H]1C(=O)c1c(O)c(-c2ccc(OC(=O)CC)cc2)c[nH]c1=O	–	–
8 (≈ 0.0155 µM)	–	2 (≈ 0.00386 µM)	–	–	0.25 (≈ 0.483 µM)	–	C/C=C/[C@@H]1[C@H]2C[C@@H](CO)CC[C@@H]2C(C)=C[C@H]1C(=O)c1c(O)c(-c2ccc(OC(=O)C3CC3)cc2)c[nH]c1=O	–	–
8 (≈ 0.0144 µM)	1	1 (≈ 0.00181 µM)	43	0.15	0.031 (≈ 0.056 µM)	–	C/C=C/[C@@H]1[C@H]2C[C@@H](C)CC[C@@H]2C(C)=C[C@H]1C(=O)c1c(O)c(-c2ccc(OC(=O)/C=C/c3cnc[nH]3)cc2)c[nH]c1=O	–	16
> 800	–	8 (≈ 0.0158 µM)	–	–	0.25 (≈ 0.494 µM)	–	C/C=C/[C@@H]1[C@H]2C[C@@H](CO)CC[C@@H]2C(C)=C[C@H]1C(=O)c1c(O)c(-c2ccc(OC(=O)CC)cc2)c[nH]c1=O	–	–
1000 (≈ 1.69 µM)	–	> 1000	–	–	> 5	–	C/C=C/[C@@H]1[C@H]2C[C@@H](C)CC[C@@H]2[C@](C)(Br)[C@H]2Oc3ncc(-c4ccc(O)c(Br)c4)c(O)c3C(=O)[C@@H]12	–	–

SMILES	IC50 [1] [ng/mL]	MIC (Candida albicans [2]) [µg/mL]	IC50 [3] [ng/mL]	Ratio IC50 (Candida albicans [4])	IC50 [5] [µg/mL]	MIC (Candida albicans [6]) [µg/mL]	MIC (Candida albicans [9]) [µg/mL]	Ratio IC50 [7]	Ratio (Candida albicans [8])
C/C=C/[C@@H]1[C@H]2C[C@@H](C)CC[C@@H]2C(C)=C[C@H]1C(=O)c1c(O)c(-c2ccc(O)cc2)c[nH]c1=O [ILICICOLIN H]	2000 (≈ 4.61 µM)	> 1	0.5 (≈ 0.00115 µM)	140	0.07	0.02 (≈ 0.0461 µM)	–	> 1000	>25
